Data: patent publication US5359075A, “Quinophthalone compound” (Mitsui Toatsu Chemicals, Incorporated, priority 1991, dated 1994)

Tests used:
[1] = maximum absorption wavelength; format: physicochemical; conditions: for λmax: solvent not given
[2] = solubility of each compound in a solvent; format: physicochemical; conditions: at 20° C., % on weight
Protocol: For the six compounds (B) to (H) of Examples 1 to 6 and the compounds (I) and (J) for comparison, the solubility of each compound in a solvent was measured.

[3] = Dichroic ratio / liquid crystal display element in liquid crystal mixture E-8; conditions: liquid crystal E-8
Protocol: Each of the dyestuffs of Examples 12 and 13 was added to 9.8 parts of a liquid crystal mixture of a trade name E-8 made by Merck AG, and the mixture was then heated up to about 60° C. to completely dissolve the dyestuff. After cooling, the solution was poured into a liquid crystal display element, and it was then hermetically sealed.
Each sample was put on a light path of a spectrophotometer, and an absorbance A was measured by applying straight polarized light to the liquid crystal in parallel with the arrangement of the liquid crystal and an absorbance A' was measured by applying straight polarized light to the liquid crystal at a right angle to the arrangement of the liquid crystal. By the use of the thus measured absorbances A and A', a dichroic ratio was calculated in accordance with the following formula: […]
Furthermore, as comparative preparation examples, otherwise the same liquid crystals as mentioned above were prepared from compounds for comparison represented by the following formulae (K) and (L).

[4] = Resin coloring suitability test: heat resistance; format: physicochemical; conditions: 0.02 pts. wt., 300° C./10 min.; for Heat resistance (H), ABS: Acrylonitrile/butadiene/styrene; for Heat resistance (H), PC: Polycarbonate; for Heat resistance (H), PET: Polyethylene glycol terephthalate; for Heat resistance (H), PS: Polystyrene
Protocol: For the compounds (B, C, D, F, G and H), a resin coloring suitability test was conducted.
H: Heat resistance, 300° C./10 min., Gray scale judgement
Heat resistance and bleed resistance: […]
judgement, and the fifth grade or more was denoted by .circleincircle. an
the third to fifth grades by .largecircle..

| λmax ([1]; Table 5) | Solubility in Acetone [2] | Solubility in DMF [2] | Solubility in THF [2] | Solubility in Toluene [2] | λmax ([1]; Table 1) | SMILES | further results |
| --- | --- | --- | --- | --- | --- | --- | --- |
| – | 7.10% | 13.49% | 12.63% | 10.52% | – | CCCCN(CCCC)C(=O)c1ccc2c(c1)C(=O)C(c1nc3ccc(C(C)C)cc3cc1O)C2=O (stereo not drawn) [F] | maximum absorption wavelength in toluene [1]: 450 nm; Heat resistance (H), ABS [4]: .largecircle. (the third to fifth grades); Heat resistance (H), PC [4]: .circleincircle. (the fifth grade or more); Heat resistance (H), PET [4]: .circleincircle. (the fifth grade or more); Heat resistance (H), PS [4]: .circleincircle. (the fifth grade or more) |
| 450 nm | – | – | – | – | – | CCCCCCCCN1CCN=C1c1ccc2c(c1)C(=O)C(c1nc3ccccc3c(Sc3ccc(C(C)(C)C)cc3)c1O)C2=O (stereo not drawn) [Example 14] | – |
| – | – | – | – | – | 455 nm | Cc1ccc2oc(-c3ccc(-c4ccc(N5C(=O)c6cc7c(cc6C5=O)C(=O)C(c5nc6ccc(C(C)C)cc6cc5O)C7=O)cc4)cc3)nc2c1 [Example 13] | – |
| – | 1.58% | 3.56% | 2.28% | 1.79% | – | CC(C)c1ccc2nc(C3C(=O)c4ccccc4C3=O)c(O)cc2c1 [D] | maximum absorption wavelength in toluene [1]: 450 nm; Heat resistance (H), ABS [4]: .largecircle. (the third to fifth grades); Heat resistance (H), PC [4]: .circleincircle. (the fifth grade or more); Heat resistance (H), PET [4]: .largecircle. (the third to fifth grades); Heat resistance (H), PS [4]: .circleincircle. (the fifth grade or more) |
| 450 nm | – | – | – | – | – | CC(=O)OCC1(COC(C)=O)COC(c2ccc3c(c2)C(=O)C(c2nc4ccccc4cc2O)C3=O)=N1 (stereo not drawn) [Example 16] | – |
| – | 3.48% | 6.91% | 6.50% | 3.98% | – | CC1CN=C(c2ccc3c(c2)C(=O)C(c2nc4ccccc4cc2O)C3=O)O1 (stereo not drawn) [B] | maximum absorption wavelength in toluene [1]: 448 nm; Heat resistance (H), ABS [4]: .largecircle. (the third to fifth grades); Heat resistance (H), PC [4]: .circleincircle. (the fifth grade or more); Heat resistance (H), PET [4]: .largecircle. (the third to fifth grades); Heat resistance (H), PS [4]: .circleincircle. (the fifth grade or more) |
| – | 3.95% | 7.03% | 6.55% | 4.22% | – | CC(C)c1nnc(-c2ccc3c(c2)C(=O)C(c2nc4ccccc4cc2O)C3=O)o1 (stereo not drawn) [C] | maximum absorption wavelength in toluene [1]: 450 nm; Heat resistance (H), ABS [4]: .largecircle. (the third to fifth grades); Heat resistance (H), PC [4]: .circleincircle. (the fifth grade or more); Heat resistance (H), PET [4]: .largecircle. (the third to fifth grades); Heat resistance (H), PS [4]: .circleincircle. (the fifth grade or more) |
| – | – | – | – | – | 460 nm | CC(C)NC(=O)c1cc2c(cc1C(=O)NC(C)C)C(=O)C(c1nc3ccc(C(C)C)cc3cc1O)C2=O [Example 8] | – |
| 450 nm | – | – | – | – | – | CCC1(COC(=O)C(C)C)COC(c2ccc3c(c2)C(=O)C(c2nc4ccc(C5CCCCC5)cc4cc2O)C3=O)=N1 (stereo not drawn) [Example 19] | – |

Second part, the compound before the results:

| SMILES | λmax ([1]; Table 5) | Solubility in Acetone [2] | Solubility in DMF [2] | Solubility in THF [2] | Solubility in Toluene [2] | λmax ([1]; Table 1) | further results |
| --- | --- | --- | --- | --- | --- | --- | --- |
| CCCCCCC1(CC)COC(c2ccc3c(c2)C(=O)C(c2nc4ccccc4cc2O)C3=O)=N1 (stereo not drawn) [Example 17] | 450 nm | – | – | – | – | – | – |
| CCCCCCCCOC(=O)c1ccc2c(c1)C(=O)C(c1nc3ccc(CCCC)cc3cc1O)C2=O (stereo not drawn) [I, reference compound] | – | 0.33% | 1.20% | 0.98% | 0.51% | – | dissolution in the liquid crystal [3]: not completely dissolved |
| CCC1(COC(=O)C(C)C)COC(c2ccc3c(c2)C(=O)C(c2nc4ccc(C(C)C)cc4cc2O)C3=O)=N1 (stereo not drawn) [H] | – | 5.31% | 12.64% | 10.38% | 8.85% | – | maximum absorption wavelength in toluene [1]: 450 nm; Heat resistance (H), ABS [4]: .largecircle. (the third to fifth grades); Heat resistance (H), PC [4]: .circleincircle. (the fifth grade or more); Heat resistance (H), PET [4]: .circleincircle. (the fifth grade or more); Heat resistance (H), PS [4]: .circleincircle. (the fifth grade or more) |
| CCCCCCCCOc1ccc(-c2ccc(N3C(=O)c4cc5c(cc4C3=O)C(=O)C(c3nc4ccc(C(C)C)cc4cc3O)C5=O)cc2)cc1 [Example 12] | – | – | – | – | – | 455 nm | – |
| CC(C)c1ccc2nc(C3C(=O)c4ccc(-c5nnc(C(C)C)s5)cc4C3=O)c(O)cc2c1 (stereo not drawn) [Example 15] | 450 nm | – | – | – | – | – | – |
| CCCCSc1c(O)c(C2C(=O)c3ccccc3C2=O)nc2ccc(C(C)C)cc12 [Example 10] | – | – | – | – | – | 450 nm | – |
| CCC1(COC(C)=O)COC(c2ccc3c(c2)C(=O)C(c2nc4ccc(C(C)C)cc4cc2O)C3=O)=N1 (stereo not drawn) [Example 20] | 450 nm | – | – | – | – | – | – |
| CC(=O)OCC1(COC(C)=O)COC(c2ccc3c(c2)C(=O)C(c2nc4ccc(C(C)C)cc4cc2O)C3=O)=N1 (stereo not drawn) [Example 21] | 450 nm | – | – | – | – | – | – |
| CCCCNC(=O)c1ccc2c(c1)C(=O)C(c1nc3ccc(C(C)C)cc3cc1O)C2=O (stereo not drawn) [Example 7] | – | – | – | – | – | 450 nm | – |
| CCC1(CO)COC(c2ccc3c(c2)C(=O)C(c2nc4ccc(C(C)C)cc4cc2O)C3=O)=N1 (stereo not drawn) [G] | – | 3.84% | 6.91% | 6.50% | 4.01% | – | maximum absorption wavelength in toluene [1]: 450 nm; Heat resistance (H), ABS [4]: .largecircle. (the third to fifth grades); Heat resistance (H), PC [4]: .circleincircle. (the fifth grade or more); Heat resistance (H), PET [4]: .circleincircle. (the fifth grade or more); Heat resistance (H), PS [4]: .circleincircle. (the fifth grade or more) |
| CCCN(CCC)C(=O)c1ccc2c(c1)C(=O)C(c1nc3ccc(C(C)C)cc3cc1O)C2=O (stereo not drawn) [Example 11] | – | – | – | – | – | 450 nm | – |
| CCCCCCNC(=O)c1ccc2c(c1)C(=O)C(c1nc3ccc(C(C)C)cc3c(Br)c1O)C2=O (stereo not drawn) [Example 9] | – | – | – | – | – | 450 nm | – |
| CCCCOC(=O)c1ccc2c(c1)C(=O)C(c1nc3ccc(C)cc3cc1O)C2=O (stereo not drawn) [J, reference compound] | – | 0.13% | 0.78% | 0.34% | 0.28% | – | dissolution in the liquid crystal [3]: not completely dissolved |
